In US6376666B1 (Nauchno-Issledovatelsky Institut Farmakologii Rossiiskoi …, priority 1994, dated 2002):

Experiments:
[1] = test system: Balb/c mice; test: open-field test, Balb/c mice (passive type of emotional-stress reaction); assay type: in vivo; set-up: key to Total activity: sum of all locomotor activity counts (crossings + rearings) in 3 min; settings: for effect on the behavior (locomotor activity) of Balb/c mice in open-field test, in words: i.p., screening
Source text: The main point of this approach consists in comparative analysis of the behavioural effects of tested compounds in two inbred strains of mice Balb/c and C57B1/6 with different hereditary types of emotional-stress reactions (ESR). The anxiolytic effect was estimated as the activation of the locomotor activity of animals with “passive” type of ESR (Balb/c mice). The main index describing the sedative properties of tested drugs was the inhibition of the locomotor activity of mice with “active” type of ESR (C57B1/6 strain). The anxioselectivity was evaluated according to coincidence of doses range which activated or inhibited the behavior of mice of different strains. Earlier this approach has been successfully used for estimation of anxioselective activity of such known drugs as phenazepam [Seredenin S. B. et al., Bull.Exp.Biol.Med., 1979, v.88, N7, p.38; Seredenin S. B. et al., Ann.Inst.Super.Sanita, 1990, v.26, N1, p.81-88], mexidol [Seredenin S. B. et al., Khimiko-Farmatsevt.Zhurnal, 1987, N2, p.134; Vironina T. A., Seredenin S. B., Ann.Inst.Super.Sanita, 1988, v.24, N3, p.461-466] and gidazepam [Seredenin S. B. et al., in: “Gidazepam” Kiev, Naukova Dumka, 1992, p.92; Seredenin S. B., Blednov Yu. A., Phys.Chem.Biol.Med., 1993, v.1, N1, p.53-60].
Male C57B1/6 and Balb/c mice (“Stolbovaya” animal farm), weighing 20-22 g were used. The animals were housed in a separate animal room in groups of ten and maintained on 12 h light-dark cycle (light from 8.00 till 20.00) with free access to standard food and water during two weeks before experiment. Testing was performed between 9.00 and 13.00. Every used compound was administered intraperitoneally in water solutions 30 min before testing (0,1 ml solution per 10 g of weight). The “open-field” apparatus consisted of cylinder closed from one end, illuminated by four 75 W lamps fixed to the walls 100 cm above the floor. The “open-field” apparatus was 100 cm in diameter and white-painted; the floor was marked with 3 black circles and some radial lines divided the floor into 16 peripheral and 8 central segments. 30 min after injection each animal was placed in the same peripheral square on the floor for 3 min of testing after 1 min exposure in the dark chamber. The following behavior variables were recorded: 1) the number of crossings in the peripheral area (peripheral activity); 2) the number of crossings in the central segments (central activity); 3) the number of rearings (vertical activity); 4) the emotionality was measured as the number of defecations during the test. The sum of all types of locomotor activity was marked as total activity. The t-Student test was used for statistical analysis.

[2] = test system: cats; test: hemodynamics and activity of intact heart in cats under anesthesia; assay type: in vivo; settings: cats i.v.; for effect on heart rate, in words: doses of 0,5 mg/kg-2,0 mg/kg
Protocol: The effects of compounds on the hemodynamics and activity of intact heart were studied in cats under anesthesia. The experiments were carried out under conditions of open chest. The phase curve of aortic blood flow was the main index of cardiac activity. The compounds were administered i.v. in physiological solution. The t-Student' test was used to estimate the statistical significance.

[3] = 0.1 mg/kg i.p., M ± mx, 0.1 mg/kg
[4] = 1.0 mg/kg i.p., M ± mx, 1 mg/kg
[5] = 10.0 mg/kg i.p., M ± mx, 10 mg/kg

| SMILES | effect on the behavior (locomotor activity) of Balb/c mice in open-field test, in words [1] | effect on heart rate, in words [2] | effect on parameters of hemodynamics and heart activity, in words [2] | other results |
| --- | --- | --- | --- | --- |
| CCOc1ccc2nc(SCCN(CC)CC)[nH]c2c1 [VI, 2-2-[(Diethylamino)ethylthio]-5-ethoxybenzo-imidazole] | inhibited the locomotor activity | small and short bradycardia | – | Peripheral activity (crossings) [1, 3]: 3.0 ± 1.8; Total activity [1, 3]: 3.0 ± 1.8; Vertical activity (rearings) ([1]; 1.0 mg/kg i.p., M ± mx): 0.4 ± 0.4; Peripheral activity (crossings) [1, 4]: 3.3 ± 1.3; Total activity [1, 4]: 3.7 ± 1.7; Peripheral activity (crossings) [1, 5]: 3.1 ± 0.8; Total activity [1, 5]: 3.1 ± 0.8 |
| CCN(CC)CCSc1nc2ccccc2n1Cc1ccccc1 [XIX, 1-Benzyl-2-[2-(diethylarnino)ethylthio]benzimidazole] | inhibited the locomotor activity | – | no effects on the parameters of hemodynamics and heart activity | – |
| CCOc1ccc2nc(SCCN3CCCCC3)[nH]c2c1 [XI] | neither activatory nor inhibitory effects | – | no effects on the parameters of hemodynamics and heart activity | – |
| Cc1cc2nc(SCCCN(C)C)[nH]c2cc1C [XVI, 2-[3-(Dimethylamino)propylthio]-5,6-dimethylbenzimidazole] | inhibited the locomotor activity | – | no effects on the parameters of hemodynamics and heart activity | – |
| Cc1cc2nc(SCCCN3CCN(C)CC3)[nH]c2cc1C [XVII, 2-[3-(4-Methylpyperazino)propylthio]-5,6-dimethylbenzimidazole] | inhibited the locomotor activity | small and short bradycardia | – | Central activity (crossings) ([1]; 0.1 mg/kg i.p., M ± mx): 0.5 ± 0.5; Number of defecations ([1]; 0.1 mg/kg i.p., M ± mx): 2.0 ± 0.8; Peripheral activity (crossings) ([1]; 0.1 mg/kg i.p., M ± mx): 4.0 ± 1.0; Total activity ([1]; 0.1 mg/kg i.p., M ± mx): 4.5 ± 1.5; Number of defecations ([1]; 1.0 mg/kg i.p., M ± mx): 0.1 ± 0.1; Peripheral activity (crossings) ([1]; 1.0 mg/kg i.p., M ± mx): 7.7 ± 1.9 |
| CN(C)CCSc1nc2ccccc2n1Cc1ccccc1 [XVIII, 1-Benzyl-2-[2-(dimethylamino)ethylthuo]benzimidazole] | – | – | no effects on the parameters of hemodynamics and heart activity | – |
| CCN(CC)CCSc1nc2ccccc2n1CCc1ccccc1 [XXI, 1-(β-Phenylethyl)-2-[2-(diethylamino)ethylthio]benzimidazole] | neither activatory nor inhibitory effects | small and short bradycardia | – | – |
| c1ccc(CCn2c(SCCN3CCOCC3)nc3ccccc32)cc1 [XXII] | neither activatory nor inhibitory effects | – | no effects on the parameters of hemodynamics and heart activity | – |
